From patent US8299070B2, “Indole compounds and pharmaceutical use thereof” (Japan Tobacco Inc., priority 2009, dated 2012)

Target: T1, hITK enzyme (FLAG-tagged full-length hITK) (Homo sapiens, UniProt Q08881)
T1 construct: strongly expressing FLAG-tagged full-length hITK in Sf9 cells; FLAG; made in house; host or cells: Sf9 insect cells (ITK); Escherichia coli (GST-SLP76 substrate)
T1 sequence (Q08881 1-620): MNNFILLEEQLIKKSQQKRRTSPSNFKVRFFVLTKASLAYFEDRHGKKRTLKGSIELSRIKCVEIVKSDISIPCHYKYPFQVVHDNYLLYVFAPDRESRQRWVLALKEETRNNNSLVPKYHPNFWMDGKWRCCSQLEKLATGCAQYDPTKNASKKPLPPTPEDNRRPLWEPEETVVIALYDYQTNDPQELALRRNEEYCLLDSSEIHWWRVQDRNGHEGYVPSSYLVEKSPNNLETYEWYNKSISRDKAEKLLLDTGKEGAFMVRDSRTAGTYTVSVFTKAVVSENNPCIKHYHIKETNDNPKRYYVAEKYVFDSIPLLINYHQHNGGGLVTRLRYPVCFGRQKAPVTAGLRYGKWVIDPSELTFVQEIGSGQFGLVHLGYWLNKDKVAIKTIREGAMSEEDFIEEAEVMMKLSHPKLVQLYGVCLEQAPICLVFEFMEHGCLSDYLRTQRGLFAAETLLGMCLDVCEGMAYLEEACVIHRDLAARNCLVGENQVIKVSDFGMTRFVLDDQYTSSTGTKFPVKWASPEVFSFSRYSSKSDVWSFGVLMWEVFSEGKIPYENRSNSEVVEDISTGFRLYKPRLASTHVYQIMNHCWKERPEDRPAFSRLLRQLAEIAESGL
Experiment: ITK inhibitory activity (HTRF kinase assay, biotinylated GST-SLP76 substrate)
Assay type: biochemical
Conditions: IC50 calculated from the 2 test compound concentrations sandwiching 50% ITK inhibitory rate
In short: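 Sf9-expressed hITK (50 ng/mL enzyme solution) reacted 10 min at RT in MOPS pH 7.0, 10 mmol/L MgCl2, 1 mmol/L DTT with E. coli SLP76 aa95–175 substrate; substrate solution held 100 µmol/L ATP (6 µmol/L for selected compounds). HTRF 665/620 ratio, blank-corrected; IC50 interpolated between two concentrations bracketing 50% inhibition.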

Compound | IC50
COC(CO)C(=O)N(C)c1ccc2cc(-c3n[nH]c4c3CCC(C)(C)C4)[nH]c2c1 (stereo not drawn) [Example 48] | 6 nM
CCC(C(=O)N(C)c1ccc2cc(-c3n[nH]c4c3CCC(C)(C)C4)[nH]c2c1)N1CCOCC1 (stereo not drawn) [Example 129] | 5 nM
CCC(=O)Nc1ccc2[nH]c(-c3n[nH]c4c3CCC(C)(C)C4)cc2c1 [Example 345] | 88 nM
CO[C@H]1CCCN(C(C)C(=O)N(C)c2ccc3cc(-c4n[nH]c5c4CCC(C)(C)C5)[nH]c3c2)C1 (stereo partly drawn) [Example 116] | 9 nM
CN(C(=O)C(O)c1ccccc1)c1ccc2cc(-c3n[nH]c4c3CCC(C)(C)C4)[nH]c2c1 (stereo not drawn) [Example 68] | 7 nM
CN(CC(=O)O)C(=O)c1ccc2[nH]c(-c3n[nH]c4c3CCC(C)(C)C4)cc2c1 [Example 312] | 27 nM
CC1(C)CCc2c(-c3cc4cc(C(=O)NCc5nnn[nH]5)ccc4[nH]3)n[nH]c2C1 [Example 317] | 21 nM
CC1(C)CCc2c(-c3cc4cc(C(=O)NC(C)(C)CO)ccc4[nH]3)n[nH]c2C1 [Example 320] | 49 nM
CCCOCCNC(=O)c1ccc2[nH]c(-c3n[nH]c4c3CCC(C)(C)C4)cc2c1 [Example 308] | 49 nM
CC(CO)N(C)C(=O)c1ccc2cc(-c3n[nH]c4c3CCC(C)(C)C4)[nH]c2c1 (stereo not drawn) [Example 7, 2-(6,6-dimethyl-4,5,6,7-tetrahydro-1H-indazol-3-yl)-1H-indole-6-carboxylic acid (2-hydroxy-1-methylethyl)methylamide] | 39 nM
CC1(C)CCc2c(-c3cc4ccc(C(=O)Nc5ccccc5)cc4[nH]3)n[nH]c2C1 [Example 9] | 334 nM
CN(C(=O)c1ccc2[nH]c(-c3n[nH]c4c3CCC(C)(C)C4)cc2c1)c1ccccc1 [Example 295] | 138 nM
CC1(C)CCc2c(-c3cc4cc(C(=O)N5C[C@@H](O)[C@@H](O)C5)ccc4[nH]3)n[nH]c2C1 [Example 335] | 26 nM

More lines, now with the values ahead:

IC50 | Compound
2 nM | CN(C(=O)CN1CCCCC1=O)c1ccc2cc(-c3n[nH]c4c3CCC(C)(C)C4)[nH]c2c1 [Example 105]
1 nM | COCCN(C(=O)CN1CCCCCC1=O)c1ccc2cc(-c3n[nH]c4c3CCC(C)(C)C4)[nH]c2c1 [Example 281]
1 nM | CN(C)CCCN(C(=O)C1CCCO1)c1ccc2cc(-c3n[nH]c4c3CCC(C)(C)C4)[nH]c2c1 (stereo not drawn) [Example 224]
5 nM | CC(=O)N1CCC[C@H]1C(=O)N(C)c1ccc2cc(-c3n[nH]c4c3CCC(C)(C)C4)[nH]c2c1 [Example 165]
3 nM | CN(C(=O)C1CCOC1)c1ccc2cc(-c3n[nH]c4c3CCC(C)(C)C4)[nH]c2c1 (stereo not drawn) [Example 66]
1 nM | CN(C(=O)CN1C(=O)CC[C@H]1CO)c1ccc2cc(-c3n[nH]c4c3CCC(C)(C)C4)[nH]c2c1 [Example 160]
2 nM | CN(C(=O)CN1CCNC1=O)c1ccc2cc(-c3n[nH]c4c3CCC(C)(C)C4)[nH]c2c1 [Example 185]
2 nM | CCC(=O)N(C)CC(=O)N(CC)c1ccc2cc(-c3n[nH]c4c3CCC(C)(C)C4)[nH]c2c1 [Example 292]
2 nM | C[C@@H](C(=O)N(C)c1ccc2cc(-c3n[nH]c4c3CCC(C)(C)C4)[nH]c2c1)N1CCOCC1 [Example 4, (S)—N-[2-(6,6-dimethyl-4,5,6,7-tetrahydro-1H-indazol-3-yl)-1H-indol-6-yl]-N-methyl-2-(morpholin-4-yl)propionamide]
3 nM | CC(C(=O)N(CCO)c1ccc2cc(-c3n[nH]c4c3CCC(C)(C)C4)[nH]c2c1)C1CCOCC1 (stereo not drawn) [Example 242]
2 nM | CC(=O)N(C)CC(=O)N(C)c1ccc2cc(-c3n[nH]c4c3CCC(C)(C)C4)[nH]c2c1 [Example 192]
3 nM | CO[C@H](C)C(=O)N(C)c1ccc2cc(-c3n[nH]c4c3CCC(C)(C)C4)[nH]c2c1 [Example 168]
< 3 nM | COCC(=O)N(CCO)c1ccc2cc(-c3n[nH]c4c3CCC(C)(C)C4)[nH]c2c1 [Example 213]
4 nM | CN(C(=O)CC1CCOCC1)c1ccc2cc(-c3n[nH]c4c3CCC(C)(C)C4)[nH]c2c1 [Example 94]
